Data set [1] is described as follows: Wash test: malodor marker reduction on artificial body soil treated fabric, headspace GCMS. The conditions noted are these: Table 5, vs control detergent nil antioxidant. As to the method:
In order to test the efficiency of the antioxidants for malodor reduction, an artificial body soil (ABS) was prepared. The artificial body soil is a modified version of the soil from ASTM D4265-21. To prepare the ABS, the components of Table 1 were combined in an 8 oz. jar and heated to 70° C. until fully solubilized.
50/50 Cotton/poly interlock fabric (Style 7439 GB, Testfabrics, Inc.) was cut into 2 in×5 in swatches. Cut swatches were dosed with three equally spaced 0.36 mL portions of artificial body soil composition. Fabrics were then sealed together in a mylar bag and incubated at 37° C. for four to seven days prior to wash treatment.
Antioxidant solution was prepared by dissolving the antioxidant compound to be tested in methanol at 0.5% w/w. The antioxidant solution was dosed into the wash water (500 mL) using a micropipettor according to Table 3 to obtain the desired concentration of antioxidant in wash water required for the testing.
To 1 L wash beaker was added 0.4 g Tide Free and Gentle detergent, 500 mL of wash water (as prepared in Table 2) and the antioxidant solution as described in Table 3. The wash beaker was placed in a tergetometer. To the wash beaker was added two incubated fabric swatches (4 g) followed by one 11 in×11 in 50/50 Cotton/Poly interlock knit clean fabric swatch (16 g, Style 74390B, Testfabrics, Inc.), for a total liquor to fabric ratio of 25:1. The fabrics were then washed in the tergotometer for 15 minutes and spun dried for one minute in a spin dryer (Mini Spin Dryer Model LASD-1 available from The Laundry Alternative, Inc.). […] The tests were run in triplicate and an average malodor reduction percent was calculated. […]
The percent malodor reduction is determined by GCMS using an Agilent Intuvo 9000 GC equipped with an Agilent 7000D GC/TQ mass spectrometer and a Trajan PAL 3 RTC sampler equipped with a solid phase micro-extraction (SPME) probe. […] The extracted ion chromatogram for 3-methyl-2-butenal includes Quantifier: 84, Qualifier: 55, Ratio: 35.7. […]

Data set [2] can be described thus: Stability of antioxidants in AATCC HE liquid detergent (crystallization/precipitation). The data set is classed as physicochemical. The conditions noted are these: room temperature, after 3 days. From the text: A comparison of the stability of the antioxidants in standard AATCC detergent was made to highlight the benefit of having a plurality of molecules. Due to the highly crystalline nature of many commercially available antioxidants, they tend to be incompatible in detergent and will crystallize out of the detergent over time. The inventive compounds of this invention show improvements in remaining stable in liquid detergent.
The antioxidants in table 6 were combined with AATCC HE liquid detergent without optical brighteners (available from Test Fabrics, Inc., Item #0501001) in a 20 mL glass scintillation vial. The vials were placed in a sonicator for 1 hour, then heated to 80° C. for 30 minutes, whereby all samples were completely dissolved. The samples were removed from the oven, swirled briefly and hand then allowed to cool to room temperature. When the vials were cooled down to room temperature, the bottom of the vials were scratched with a metal spatula a few times to aide in the crystallization process, which can take a long time if left undisturbed. After an additional 3 days, observations were recorded as crystallization present or not present in Table 6.

Turning to `Cc1cc(CCC(=O)OCCOCCOCCOC(=O)CCc2cc(C)c(O)c(C(C)(C)C)c2)cc(C(C)(C)C)c1O` [Irganox 245, 2-[2-(2-{3-[3-(tert-Butyl)-4-hydroxy-5-tolyl]propionoxy}ethoxy)ethoxy]ethyl 3-[3-(tert-butyl)-4-hydroxy-5-tolyl]propionate], the “% Malodor marker reduction” value in data set [1] (2 ppm in wash water) came to 44.0%; in data set [1] (4 ppm in wash water) it was 74.4%; in data set [1] (8 ppm in wash water), 89.5%. For the same compound, the “Precipitation Seen” value is “No” in data set [2] (loading 500 ppm in AATCC detergent), “No” in data set [2] (loading 1000 ppm in AATCC detergent), “Yes” in data set [2] (loading 5000 ppm in AATCC detergent) and “Yes” in data set [2] (loading 10000 ppm in AATCC detergent).

These data come from patent US20230089534A1, “PHENOLIC COMPOSITIONS FOR MALODOR REDUCTION” (Milliken & Company, priority 2021, published 2023).
